63 compounds from BindingDB's records for doi:10.7270/Q2ZW1JC6 (Nmmlsc, 2016) can be followed below.

Broadly, the EC50 is the concentration giving half of the maximal effect. A low value points to a more potent agent.

A value given as a limit tells only on which side of the number the result lay.

This test deals with Ras-related protein Rab-2A (Canis lupus familiaris, UniProt P61105). The test can be described thus: Rab2 wildtype GTP-binding inhibitors, SAR follow-up, biochemical, pyrazoline series, Bodipy-FL-GTP, flow cytometry, multiplex (AID 2045). On the technique in general: Flow cytometry measures light scatter and fluorescence of single cells or particles in a stream.
Sequence of Ras-related protein Rab-2A (P61105 whole entry): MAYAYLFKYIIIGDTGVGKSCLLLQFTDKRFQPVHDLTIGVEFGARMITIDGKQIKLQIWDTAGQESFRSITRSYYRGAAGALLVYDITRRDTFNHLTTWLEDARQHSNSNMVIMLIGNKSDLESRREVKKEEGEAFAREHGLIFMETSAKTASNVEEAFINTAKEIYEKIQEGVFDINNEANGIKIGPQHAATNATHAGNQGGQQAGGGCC
[1] abbreviates: inactive by the depositor's call.

As for `COc1ccc(C2=NN(c3cccc(F)c3)C(c3ccc(OC)cc3)C2)cc1` (stereo not drawn) [2-(3-fluorophenyl)-3,5-bis(4-methoxyphenyl)-3,4-dihydropyrazole], under setting [1], the response was half-maximal at 1 µM (EC50).

Regarding `CN(C)c1ccc(C2CC(c3ccc(Cl)cc3)=NN2c2ccccc2)cc1` (stereo not drawn) [UNM-0000305847], the EC50 was > 30 µM.

As for `Cc1ccc(C2CC(c3ccccc3)=NN2c2ccc(S(N)(=O)=O)cc2)cc1` (stereo not drawn), the 50% effective concentration (EC50) was > 30 µM.

In the case of `COc1ccc(C2C[C-](c3ccccc3)N=[N+]2c2ccc([N+](=O)[O-])cc2)cc1` (stereo not drawn) [3-(4-methoxyphenyl)-2-(4-nitrophenyl)-5-phenyl-3,4-dihydropyrazole], the EC50 is > 30 µM.

With `COc1ccc(C2=NN(c3ccccc3)C(c3ccc(Cl)cc3)C2)cc1` (stereo not drawn) [UNM-0000305833], the EC50 is > 30 µM.

Take `COc1ccc(C2CC(C3CCCCC3)=NN2c2ccc(S(N)(=O)=O)cc2)cc1` (stereo not drawn) [4-[5-cyclohexyl-3-(4-methoxyphenyl)-3,4-dihydropyrazol-2-yl]benzenesulfonamide]: the EC50 is > 30 µM.

`COc1ccc(C2CC(c3cccc(Br)c3)=NN2c2ccc(S(N)(=O)=O)cc2)cc1` (stereo not drawn) [UNM-0000306113]: the EC50 was > 30 µM.

Turning to `COc1ccc(C2CC(c3cccs3)=NN2c2ccc(S(N)(=O)=O)cc2)cc1` (stereo not drawn) [KUC103438N], the concentration giving a half-maximal response (EC50) is > 30 µM.

`NS(=O)(=O)c1ccc(N2N=C(c3ccccc3)CC2c2ccc(Br)cc2)cc1` (stereo not drawn) [UNM-0000306160]: the EC50 was > 30 µM.

On to `COc1ccc(C2CC(c3ccccc3F)=NN2c2ccc(S(N)(=O)=O)cc2)cc1` (stereo not drawn) [UNM-0000306110], for which the concentration for a half-maximal effect (EC50) was > 30 µM.

As to `COc1ccccc1N1N=C(c2ccccc2)CC1c1ccccc1` (stereo not drawn) [UNM-0000305855], the half-maximal effective concentration (EC50) is > 30 µM.

On to `NS(=O)(=O)c1ccc(N2N=C(c3ccc(Cl)cc3)CC2c2ccccc2)cc1` (stereo not drawn), for which, under setting [1], the response was half-maximal at 0.056 µM (EC50).

As to `COc1ccc(C2CC(c3ccc(Cl)cc3)=NN2c2ccc(S(N)(=O)=O)cc2)cc1` (stereo not drawn), the EC50 was > 30 µM.

As for `CN(C)c1ccc(C2CC(c3ccc(Br)cc3)=NN2c2ccccc2)cc1` (stereo not drawn) [UNM-0000305846], the concentration for a half-maximal effect (EC50) was > 30 µM.

As for `COc1ccc(C2CC(c3cccc(C(F)(F)F)c3)=NN2c2ccc(S(N)(=O)=O)cc2)cc1` (stereo not drawn), the EC50 is > 30 µM.

For `Cc1cccc(C2CC(c3ccccc3)=NN2c2ccc(S(N)(=O)=O)cc2)c1` (stereo not drawn), the EC50 is > 30 µM.

For `Cc1ccccc1[N+]1=N[C-](c2ccccc2)CC1c1cccc([N+](=O)[O-])c1` (stereo not drawn) [UNM-0000305854], the EC50 was > 30 µM.

Take `O=S(=O)(O)c1ccc(N2N=C(c3ccccc3)CC2c2ccccc2)cc1` (stereo not drawn) [UNM-0000305834]: the EC50 was > 30 µM.

Regarding `COc1ccc(C2CC(c3cccc(Cl)c3)=NN2c2ccc(S(N)(=O)=O)cc2)cc1` (stereo not drawn) [UNM-0000306134], the EC50 is > 30 µM.

Under setting [1], `COc1ccc(C2CC(c3ccccc3)=NN2c2cccc(S(N)(=O)=O)c2)cc1` (stereo not drawn) [3-[3-(4-methoxyphenyl)-5-phenyl-3,4-dihydropyrazol-2-yl]benzenesulfonamide] displayed an EC50 of 0.074 µM. In other words, the double-digit nanomolar range.

Consider `CN(C)c1ccc(C2CC(c3ccc(F)cc3)=NN2c2ccccc2)cc1` (stereo not drawn) [UNM-0000305866], for which the EC50 was > 30 µM.

Take `FC(F)(F)c1ccccc1C1CC(c2ccc(Br)cc2)=NN1c1ccccc1` (stereo not drawn) [5-(4-bromophenyl)-2-phenyl-3-[2-(trifluoromethyl)phenyl]-3,4-dihydropyrazole]: the EC50 is > 30 µM.

With `COc1ccccc1C1CC(c2ccccc2)=NN1c1ccc(S(N)(=O)=O)cc1` (stereo not drawn) [4-[3-(2-methoxyphenyl)-5-phenyl-3,4-dihydropyrazol-2-yl]benzenesulfonamide], the concentration for a half-maximal effect (EC50) is > 30 µM.

Turning to `NS(=O)(=O)c1ccc(N2N=C(c3ccccc3)CC2c2ccccc2)cc1` (stereo not drawn) [4-(3,5-diphenyl-3,4-dihydropyrazol-2-yl)benzenesulfonamide], the EC50 is > 30 µM.

Regarding `Cc1ccccc1N1N=C(c2ccccc2)CC1c1ccc(N(C)C)cc1` (stereo not drawn) [N,N-dimethyl-4-[2-(2-methylphenyl)-5-phenyl-3,4-dihydropyrazol-3-yl]aniline], the EC50 was > 30 µM.

Consider `COc1ccc(C2=NN(c3ccc(Cl)cc3)C(c3ccccc3F)C2)cc1` (stereo not drawn) [UNM-0000305863], for which the EC50 is > 30 µM.

For `Fc1ccccc1C1CC(c2ccc(Br)cc2)=NN1c1ccc(Br)cc1` (stereo not drawn) [2,5-bis(4-bromophenyl)-3-(2-fluorophenyl)-3,4-dihydropyrazole], the half-maximal effective concentration (EC50) is > 30 µM.

`COc1ccc(C2CC(c3ccc(C(F)(F)F)cc3)=NN2c2ccc(S(N)(=O)=O)cc2)cc1` (stereo not drawn) [4-[3-(4-methoxyphenyl)-5-[4-(trifluoromethyl)phenyl]-3,4-dihydropyrazol-2-yl]benzenesulfonamide]: the EC50 is > 30 µM.

With `COc1ccc(C2CC(c3ccc(F)cc3)=NN2c2cc(Cl)ccc2Cl)cc1` (stereo not drawn) [2-(2,5-dichlorophenyl)-5-(4-fluorophenyl)-3-(4-methoxyphenyl)-3,4-dihydropyrazole], the half-maximal effective concentration (EC50) is > 30 µM.

As to `Cc1ccccc1C1CC(c2ccccc2)=NN1c1ccc(S(N)(=O)=O)cc1` (stereo not drawn) [UNM-0000306148], the EC50 is > 30 µM.

For `Clc1ccc(N2N=C(c3ccccc3)CC2c2ccccc2)cc1` (stereo not drawn), the EC50 is > 30 µM.

Consider `Brc1ccc(N2N=C(c3ccccc3)CC2c2ccccc2)cc1` (stereo not drawn), for which the concentration giving a half-maximal response (EC50) was > 30 µM.

Regarding `O=C(O)c1ccc(N2N=C(c3ccccc3)CC2c2ccccc2)cc1` (stereo not drawn), the concentration for a half-maximal effect (EC50) was > 30 µM.

As for `COc1ccc(C2CC(c3ccc(F)cc3)=NN2c2ccc(S(N)(=O)=O)cc2)cc1` (stereo not drawn) [4-[5-(4-fluorophenyl)-3-(4-methoxyphenyl)-3,4-dihydropyrazol-2-yl]benzenesulfonamide], under setting [1], a half-maximal effect (EC50) was put at 0.015 µM. That is a double-digit nanomolar value.

As to `COc1ccc(C2CC(c3ccccc3)=NN2c2ccc(Cl)c(C(=O)O)c2)cc1OC` (stereo not drawn) [2-chloro-5-[3-(3,4-dimethoxyphenyl)-5-phenyl-3,4-dihydropyrazol-2-yl]benzoic acid], the EC50 is > 30 µM.

For the compound `O=[N+]([O-])c1cccc(C2C[C-](c3ccc(F)cc3)N=[N+]2c2ccccc2)c1` (stereo not drawn) [5-(4-fluorophenyl)-3-(3-nitrophenyl)-2-phenyl-3,4-dihydropyrazole], the EC50 was > 30 µM.

As to `NS(=O)(=O)c1ccc(N2N=C(c3ccccc3)CC2c2cccc(Br)c2)cc1` (stereo not drawn) [UNM-0000306147], the 50% effective concentration (EC50) is > 30 µM.

As for `COc1ccc(C2CC(c3ccccc3Cl)=NN2c2ccc(S(N)(=O)=O)cc2)cc1` (stereo not drawn) [4-[5-(2-chlorophenyl)-3-(4-methoxyphenyl)-3,4-dihydropyrazol-2-yl]benzenesulfonamide], the EC50 is > 30 µM.

`COc1ccc(C2=NN(c3ccccc3)C(c3ccccc3C(F)(F)F)C2)cc1` (stereo not drawn): the EC50 was > 30 µM.

Regarding `NS(=O)(=O)c1ccc(N2N=C(c3ccccc3)CC2c2ccccc2Cl)cc1` (stereo not drawn) [KUC103446N], the concentration for a half-maximal effect (EC50) is > 30 µM.

Regarding `COc1ccc(C2=NN(c3ccccc3)C(c3ccc(OC)c(OC)c3C(=O)O)C2)cc1` (stereo not drawn) [UNM-0000305848], the concentration for a half-maximal effect (EC50) is > 30 µM.

Take `COc1ccc(C2CC(C)=NN2c2ccc(S(N)(=O)=O)cc2)cc1` (stereo not drawn) [4-[3-(4-methoxyphenyl)-5-methyl-3,4-dihydropyrazol-2-yl]benzenesulfonamide]: the EC50 is > 30 µM.

`COc1ccc(C2CC(c3cccc(OC)c3)=NN2c2ccc(S(N)(=O)=O)cc2)cc1` (stereo not drawn) [4-[5-(3-methoxyphenyl)-3-(4-methoxyphenyl)-3,4-dihydropyrazol-2-yl]benzenesulfonamide]: the EC50 was > 30 µM.

Under setting [1], `COc1ccc(C2=NN(c3ccc(S(N)(=O)=O)cc3)C(c3ccc(OC)cc3)C2)cc1` (stereo not drawn) [4-[3,5-bis(4-methoxyphenyl)-3,4-dihydropyrazol-2-yl]benzenesulfonamide] displayed a 50% effective concentration (EC50) of 1.69 µM.

Take `COc1ccc(C2CC(c3ccc(Br)cc3)=NN2c2ccc(S(N)(=O)=O)cc2)cc1` (stereo not drawn) [UNM-0000306138]: the 50% effective concentration (EC50) was > 30 µM.

Take `COc1ccc(C2CC(C(C)(C)C)=NN2c2ccc(S(N)(=O)=O)cc2)cc1` (stereo not drawn) [KUC103450N]: the EC50 is > 30 µM.

For `Cc1ccc(-c2cc(C(F)(F)F)nn2-c2ccc(S(N)(=O)=O)cc2)cc1` [Celecoxib], the EC50 was > 30 µM.

Turning to `COc1ccc(C2CC(c3ccccc3)=NN2c2ccc(Cl)c(C(=O)O)c2)cc1` (stereo not drawn), the concentration for a half-maximal effect (EC50) is > 30 µM.

Take `COc1ccc(C2CC(c3ccc(C)cc3)=NN2c2ccc(S(N)(=O)=O)cc2)cc1` (stereo not drawn): the concentration giving a half-maximal response (EC50) is > 30 µM.

Turning to `FC(F)(F)c1cccc(N2N=C(c3ccc(Cl)cc3)CC2c2ccccc2Cl)c1` (stereo not drawn) [UNM-0000305859], the half-maximal effective concentration (EC50) was > 30 µM.

For the compound `O=[N+]([O-])c1cccc(C2C[C-](c3ccccc3)N=[N+]2c2ccccc2)c1` (stereo not drawn) [UNM-0000305857], the half-maximal effective concentration (EC50) is > 30 µM.

As to `NS(=O)(=O)c1ccc(N2N=C(c3ccccc3)CC2c2ccccc2Br)cc1` (stereo not drawn) [4-[3-(2-bromophenyl)-5-phenyl-3,4-dihydropyrazol-2-yl]benzenesulfonamide], the EC50 is > 30 µM.

For `CCc1ccc(C2=NN(c3ccc(S(N)(=O)=O)cc3)C(c3ccc(F)cc3)C2)cc1` (stereo not drawn), the EC50 was > 30 µM.

As to `O=S(=O)(c1ccc(N2N=C(c3ccc(Br)cc3)CC2c2ccccc2)cc1)C(F)F` (stereo not drawn) [5-(4-bromophenyl)-2-[4-(difluoromethylsulfonyl)phenyl]-3-phenyl-3,4-dihydropyrazole], the EC50 is > 30 µM.

For `COc1ccc(C2=NN(c3ccccc3F)C(c3ccc(F)cc3)C2)cc1` (stereo not drawn) [UNM-0000305860], the EC50 is > 30 µM.

Turning to `CN(C)c1ccc(C2C[C-](c3ccccc3)N=[N+]2c2ccc([N+](=O)[O-])cc2)cc1` (stereo not drawn), the 50% effective concentration (EC50) was > 30 µM.

For `COc1ccc(C2CC(c3ccncc3)=NN2c2ccc(S(N)(=O)=O)cc2)cc1` (stereo not drawn), the EC50 was > 30 µM.

With `O=[N+]([O-])c1ccc([N+]2=N[C-](c3ccccc3)CC2c2ccccc2)cc1` (stereo not drawn), the concentration giving a half-maximal response (EC50) was > 30 µM.

On to `COc1ccc(C2CC(c3ccccc3)=NN2c2ccc(C(=O)O)cc2)cc1` (stereo not drawn) [UNM-0000306085], for which the EC50 was > 30 µM.

Take `NS(=O)(=O)c1ccc(N2N=C(c3ccc(Br)cc3)CC2c2ccc(F)cc2)cc1` (stereo not drawn) [4-[5-(4-bromophenyl)-3-(4-fluorophenyl)-3,4-dihydropyrazol-2-yl]benzenesulfonamide]: the concentration for a half-maximal effect (EC50) is > 30 µM.

Turning to `COc1ccc(C2CC(c3ccccc3C)=NN2c2ccc(S(N)(=O)=O)cc2)cc1` (stereo not drawn) [UNM-0000306152], the EC50 was > 30 µM.

With `CN(C)c1ccc(C2CC(c3ccccc3)=NN2c2ccccc2)cc1` (stereo not drawn) [4-(2,5-diphenyl-3,4-dihydropyrazol-3-yl)-N,N-dimethylaniline], the EC50 is > 30 µM.

As to `COc1ccc(C2CC(c3ccc(F)cc3)=NN2c2cccc(F)c2)cc1OC` (stereo not drawn), the concentration for a half-maximal effect (EC50) is > 30 µM.
